In ChEMBL document CHEMBL5316264, “Identification of N- and C-3-Modified Laudanosoline Derivatives as Novel Influenza PAN Endonuclease Inhibitors” (J Med Chem, 2023) one finds IC50 data, which are given here for two compounds.

This assay has as its target Polymerase acidic protein (Influenza A virus (A/Puerto Rico/8/1934(H1N1)), UniProt P03433). The following applies: hek293t.

The IC50 is the concentration that inhibits the measured activity by half. A low value points to greater potency. `O=C1c2c(O)c(=O)ccn2N([C@@H]2c3ccccc3SCc3c2ccc(F)c3F)[C@@H]2COCCN12` [BALOXAVIR] returned an IC50 of 300 µM.
Consider `CCCOC(=O)[C@@H]1Cc2cc(O)c(O)cc2[C@H](Cc2ccc(O)c(O)c2)N1C(=O)c1ccccc1Cl`, for which the half-maximal inhibitory concentration (IC50) worked out at 10.8 µM.
